Source: patent publication US10328083B1, “Compositions and methods for treating stroke” (University of South Florida, priority 2012, dated 2019)
Where a name gives a salt, the structure may show the parent alone.

Experiments:
Type in all cases: in vivo
[1] = test system: permanent middle cerebral artery occlusion (MCAO) in rats; assay: Results of treatment post MCAO (Table 3; CD11b staining of infarct and surrounding areas per FIGS. 2-4); conditions: treatment started 6 h post MCAO; rats euthanized at 48 h post MCAO
Method: FIG. 1 is a table showing the conivaptan treatment regimens. The five treatment groups were normal saline (control)[NS], 5% saline infusion+5% saline maintenance [5% IM], conivaptan only [C], conivaptan+5% saline maintenance [C5% M], and conivaptan+5% saline infusion+5% saline maintenance [C5% IM]. (Euth.=euthanized).
FIG. 4 is a graph showing the average area fraction of CD11b staining at 48 hours post MCAO following the various treatments.
(§1) Permanent middle cerebral artery occlusion (MCAO) was induced in rats. Post MCAO, conivaptan, hyper saline or normal saline was administered to the rats via jugular catheter at varying times and dosages. The conivaptan used was Vaprisol® which is a conivaptan hydrochloride premixed in 5% dextrose at 20 mg/100 ml in 100 ml IV bag. The conivaptan was purchased from Astellas Pharma USA, Inc. (lot#0789065) and sub-aliquoted into sterile foil-covered vials. Hyper saline solutions were 5% NaCl. Saline solutions were 0.9% NaCl.
For rats receiving the six-hour treatment, 0.5 ml (0.35 mg/kg) bolus conivaptan was administered 6 hours post MCAO, followed by administrations of 0.1 ml (0.07 mg/kg) conivaptan at 9 hours post MCAO. At 20, 24, 28, and 32 hours post MCAO, 0.1 ml (0.07 mg/kg) conivaptan was administered. A saline control (1.4 ml of 0.9% saline) was then injected at 44 hours post MCAO. At 48 hours post MCAO, the rats were euthanized. […]

[2] = test system: permanent middle cerebral artery occlusion (MCAO) in rats; assay: Fluoro-Jade staining of neural biopsies from the site of the infarct after permanent MCAO
Method: as §1, with “MCAO, conivaptan” for “MCAO, conivaptan, hyper saline or normal saline”, “the rat” for “the rats”, “was VAPRISOL®” for “was Vaprisol®”, “vials.” for “vials. Hyper saline solutions were 5% NaCl. Saline solutions were 0.9% NaCl.”
(§2) For rats receiving the 6-hour treatment, 0.5 ml (0.35 mg/kg) bolus conivaptan was administered six hours post MCAO, followed by administrations of 0.1 ml (0.07 mg/kg) conivaptan at nine hours post MCAO. At 20, 24, 28, and 32 hours post MCAO, 0.1 ml (0.07 mg/kg) conivaptan was administered. A saline control (1.4 ml of 0.9% saline) was then injected at 44 hours post MCAO. At 48 hours post MCAO, the rats were euthanized.
(§3) For rats receiving the 24-hour treatment, 0.5 ml (0.35 mg/kg) bolus conivaptan was administered 24 hours post MCAO, followed by administrations of 0.1 ml (0.07 mg/kg) conivaptan at 20, 24, 28 and 32 hours post MCAO. Saline controls (1.4 ml of 0.9% saline) were injected at 6, 9, and 44 hours post MCAO. At 48 hours post MCAO, the rats were euthanized.
Fluoro-Jade staining of neural biopsies obtained from the site of the infarct was also performed and the results are shown in Table 2.

[3] = test system: permanent middle cerebral artery occlusion (MCAO) in rats; assay: Mortality rate prior to euthanization after permanent MCAO; conditions: for FD: jugular catheter, up to 48 h post MCAO
Method: as §1, with “MCAO, conivaptan” for “MCAO, conivaptan, hyper saline or normal saline”, “the rat” for “the rats”, “was VAPRISOL®” for “was Vaprisol®”, “vials.” for “vials. Hyper saline solutions were 5% NaCl. Saline solutions were 0.9% NaCl.”
as §2, §3
The mortality rate prior to euthanization is provided below in Table 1: […]

## Cc1nc2c([nH]1)-c1ccccc1N(C(=O)c1ccc(NC(=O)c3ccccc3-c3ccccc3)cc1)CC2 [conivaptan, conivaptan hydrochloride]
[1]
  Avg (Table 3, results of treatment): 0.486
[2]; 6-hour treatment, n = 7, p = .06 compared to controls
  Fluoro-Jade staining Avg: 38.331 g
[2]; 6-hour treatment, p = .06
  decrease in Fluoro-Jade staining compared to controls: *p = .06 compared to controls 37% decrease
[2]; 24-hour treatment, n = 5, p = 0.3 compared to controls
  Fluoro-Jade staining Avg: 55.388 g
[3]; 6-hour treatment: 0.35 mg/kg bolus 6 h post MCAO, then 0.07 mg/kg at 9, 20, 24, 28, 32 h
  FD: 2
[3]; 6-hour treatment, prior to euthanization at 48 h post MCAO
  % Survival: 78%
[3]; 6-hour treatment, value in brackets (total), prior to euthanization at 48 h post MCAO
  % Survival (total): 82%
[3]; 24-hour treatment: 0.35 mg/kg bolus 24 h post MCAO, then 0.07 mg/kg doses
  FD: 4
[3]; 24-hour treatment, prior to euthanization at 48 h post MCAO
  % Survival: 56%
